Read-outs that look alike come from different tables or passages of the source.
Key:
[1] = media pH with purified acids (Table 2); type: physicochemical
take-all fungus = assay: agar overlay / PDA plate bioassay against take-all fungus; type: cell-based, G. graminis var tritici; conditions: for inhibition zone against take-all fungus: FIG. 6B, 12.5 mg purified sugar acid, agar overlay bioassay; for zone of inhibition at 7500 µg/disc / zone of inhibition at 12500 µg/disc / zone of inhibition at 25000 µg/disc: Gaeumannomyces graminis, read-out: Clearance zone radii; for zone of inhibition at 7500 µg/disc: amount 7.5 mg; for zone of inhibition at 12500 µg/disc: amount 12.5 mg; for zone of inhibition at 25000 µg/disc: amount 25.0 mg; for bioactivity against take-all: purified acids, PDA plate bioassay, FIG. 6A/6B; for protection against take-all: summary of Table 2
Text: A modification of the agar plug assay (Poplawsky et al., 1988) was used to assay for bioactivity of extracts of Pseudomonas strain AN5, or derivative strains thereof, against take-all fungus, wherein an agar overlay assay was used to test activity of specific fractions. This assay involves macerating the take-all fungus grown in Potato Dextrose (PD) broth and seeding it to a Potato Dextrose Agar (PDA) overlay. This PDA overlay was poured onto thick PDA plates. Fractions to be tested for activity were spotted on top of the overlay, and the plates were dried and incubated at 16° C. for 3–5 days.
Active fractions were identified by the appearance of a clearance zone in the plates, within an opaque background of cultured fungus.

[2] = cited from earlier work
[3] = cited from earlier work; remark: listed apart in the source
[4] = tested on: Botrytis fabae (Chocolate Spot Fungus); assay: in vitro bioassays against B. fabae; type: cell-based
Text: Accordingly, it is within the scope of the present invention to produce transgenic faba bean plants which produce sugar acids, using the methods described herein, to enhance tolerance of faba beans to B. fabae.

Row | Compound | media pH ([1]; amount 25.0 mg) | inhibition zone against take-all fungus (take-all fungus) | zone of inhibition at 7500 µg/disc (take-all fungus) [mm] | zone of inhibition at 12500 µg/disc (take-all fungus) [mm] | zone of inhibition at 25000 µg/disc (take-all fungus) [mm] | bioactivity against take-all (take-all fungus) | pKa [2] | media pH ([1]; amount 4.2 to 8.4 mg) | protection against take-all (take-all fungus) | biological activity against take-all relative to gluconic acid (take-all fungus) | solubility ([3]; in chloroform and methylene chloride) | solubility ([3]; in water, methanol and ethyl acetate) | suppression of growth of B. fabae [4] | relation of amount used to size of inhibition zone (take-all fungus; FIG. 6A, 25, 15, 12.5, 7.5 mg pure gluconic acid)
1 | O=C(O)CCCC(=O)O [Glutaric acid, glutaric acid] | 2.0 | strong inhibition zones | 15 | 20 | 25 | possessed activity | 4.31 |  |  |  |  |  |  | 
2 | CC(=O)O [Acetic acid, reference compound] |  |  |  |  |  |  |  | 2.4 |  |  |  |  |  | 
3 | O=C([O-])[C@H](O)[C@@H](O)[C@H](O)[C@H](O)CO.[Na+] [Sodium gluconate, reference compound] | about 7.0 |  | 0 | 0 | 0 |  |  |  | did not confer significant protection |  |  |  |  | 
4 | O=C1O[C@H]([C@@H](O)CO)C(O)=C1O [Ascorbic acid, ascorbic acid] | 1.9 | strong inhibition zones | 0 | 9 | 20 | possessed activity |  |  |  |  |  |  |  | 
5 | O=C[C@H](O)[C@@H](O)[C@@H](O)[C@H](O)C(=O)O [Galacturonic acid, galacturonic acid] | 1.7 |  | 7 | 20 | 25 |  |  |  |  | not as strong as gluconic acid |  |  |  | 
6 | O=C(O)c1cccc2nc3ccccc3nc12 [PCA, Phenazine-1-carboxylic acid] |  |  |  |  |  |  |  |  |  |  | highly soluble | insoluble |  | 
7 | O=C(O)[C@H](O)[C@@H](O)[C@H](O)[C@H](O)CO [Gluconic acid, gluconic acid] | about 5.0 |  | 7 | 10 | 20 | strong biologically activity |  |  | confers protection |  |  |  | suppress the growth and/or reproduction | positive correlation
8 | O=C(O)CC(O)C(=O)O (stereo not shown) [Malic acid, malic acid] | 1.5 | strong inhibition zones | 10 | 20 | 25 | possessed activity |  |  |  |  |  |  |  | 
9 | O=C[C@H](O)[C@@H](O)[C@H](O)[C@H](O)C(=O)O [Glucuronic acid, glucuronic acid] | 1.7 | strong inhibition zones | 0 | 10 | 20 | possessed activity |  |  |  |  |  |  |  | 

— patent publication US7087424B1, “Method of controlling fungal pathogens, and agents useful for same” (priority 1999, dated 2006)
